The source of these data is ChEMBL document CHEMBL1140005, “Phenylpropanoic acid derivatives bearing a benzothiazole ring as PPARdelta-selective agonists” (Bioorg Med Chem Lett, 2007).

One may read the pEC50 as the negative decadic logarithm of the EC50, by convention in mol/L. Low readings indicate a large EC50, high ones a small EC50.

Assay [1] has as its target T1, Peroxisome proliferator-activated receptor delta (Homo sapiens, UniProt Q03181).
T1 sequence (Q03181 whole entry): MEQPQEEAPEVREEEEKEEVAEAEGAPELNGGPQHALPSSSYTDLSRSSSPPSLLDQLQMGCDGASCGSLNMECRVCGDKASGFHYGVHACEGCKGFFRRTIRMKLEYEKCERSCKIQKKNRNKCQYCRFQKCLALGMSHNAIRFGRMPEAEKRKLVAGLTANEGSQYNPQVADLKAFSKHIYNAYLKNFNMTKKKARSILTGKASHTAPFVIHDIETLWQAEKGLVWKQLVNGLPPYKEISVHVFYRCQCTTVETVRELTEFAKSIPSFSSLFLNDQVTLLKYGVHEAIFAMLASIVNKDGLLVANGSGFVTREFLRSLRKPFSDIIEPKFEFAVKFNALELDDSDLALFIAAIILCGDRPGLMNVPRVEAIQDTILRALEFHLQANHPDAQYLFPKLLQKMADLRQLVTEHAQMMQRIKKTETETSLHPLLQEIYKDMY

For assay [2], the target named is T2, Peroxisome proliferator-activated receptor gamma (Homo sapiens, UniProt P37231).
T2 sequence (P37231 whole entry): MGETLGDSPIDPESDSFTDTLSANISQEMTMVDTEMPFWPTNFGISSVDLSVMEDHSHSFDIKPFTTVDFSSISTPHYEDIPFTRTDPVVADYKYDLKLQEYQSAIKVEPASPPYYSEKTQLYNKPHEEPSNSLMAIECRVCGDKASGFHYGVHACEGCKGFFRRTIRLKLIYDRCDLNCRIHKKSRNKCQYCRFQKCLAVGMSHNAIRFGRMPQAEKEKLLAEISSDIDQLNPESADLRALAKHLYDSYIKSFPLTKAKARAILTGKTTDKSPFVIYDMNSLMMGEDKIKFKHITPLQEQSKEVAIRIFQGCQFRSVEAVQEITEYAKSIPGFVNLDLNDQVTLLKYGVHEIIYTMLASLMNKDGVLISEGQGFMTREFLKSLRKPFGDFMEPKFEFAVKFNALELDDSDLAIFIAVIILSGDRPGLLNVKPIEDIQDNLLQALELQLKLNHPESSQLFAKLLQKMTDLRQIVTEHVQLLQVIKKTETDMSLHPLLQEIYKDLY
Nature of the assay: Agonist activity at human PPARgamma receptor expressed in HEK293 cells by GAL4 transactivation assay. It counts as functional, cell-based.

In assay [3] the target is T3, Peroxisome proliferator-activated receptor alpha (Homo sapiens, UniProt Q07869).
T3 sequence (Q07869 whole entry): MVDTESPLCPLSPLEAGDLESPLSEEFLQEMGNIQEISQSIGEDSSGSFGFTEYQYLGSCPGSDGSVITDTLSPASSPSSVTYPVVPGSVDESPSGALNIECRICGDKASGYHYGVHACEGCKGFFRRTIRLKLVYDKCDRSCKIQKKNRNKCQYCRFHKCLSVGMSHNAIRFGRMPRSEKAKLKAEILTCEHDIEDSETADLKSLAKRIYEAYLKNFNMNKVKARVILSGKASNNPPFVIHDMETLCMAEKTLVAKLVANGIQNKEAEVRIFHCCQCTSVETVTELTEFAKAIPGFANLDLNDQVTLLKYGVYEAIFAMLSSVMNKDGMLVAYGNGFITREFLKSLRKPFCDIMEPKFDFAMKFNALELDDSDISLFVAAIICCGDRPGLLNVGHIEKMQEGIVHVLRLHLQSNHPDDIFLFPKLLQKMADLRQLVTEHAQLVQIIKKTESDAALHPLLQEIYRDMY
Kind of assay: Agonist activity at human PPARalpha receptor expressed in HEK293 cells by GAL4 transactivation assay. It counts as functional, cell-based.

pEC50: −log10 of the molar value.

`O=C(O)CCc1ccc(OCCN(Cc2ccccc2)c2nc3ccccc3s2)cc1` gave a pEC50 in assay [1] of 5.55. `CC(C)(C)c1ccc(CN(CCOc2ccc(CCC(=O)O)cc2)c2nc3ccccc3s2)cc1`: the pEC50 was 5.31 in assay [1] and 5.20 in assay [2]. As to `O=C(O)CCc1ccc(OCCN(Cc2ccc(C(F)(F)F)cc2)c2nc3ccccc3s2)cc1`, the negative-log EC50 (pEC50) in assay [1] was 6.03; in assay [3] it was 5.35; in assay [2] it was 5.43. `O=C(O)CCc1ccc(OCCN(Cc2cccs2)c2nc3ccccc3s2)cc1` gave a pEC50 in assay [1] of 5.76. The molecule `Cc1ccc2nc(N(CCOc3ccc(CCC(=O)O)cc3)Cc3ccccc3)sc2c1` showed a pEC50 in assay [1] of 5.58.

The molecule `O=C(O)CCc1ccc(OCCCN(Cc2ccccc2)c2nc3ccccc3s2)cc1` showed a pEC50 in assay [1] of 5.59.

`Cc1cc(OCCN(Cc2ccccc2)c2nc3ccccc3s2)ccc1CCC(=O)O` gave a pEC50 in assay [1] of 5.93. In assay [1], `Cc1cc(CCC(=O)O)ccc1OCCCN(Cc1cccs1)c1nc2ccc(Cl)cc2s1` had a pEC50 of 6.41.

Turning to `O=C(O)CCc1ccc(OCCN(Cc2ccccc2)c2nc3ccc(Cl)cc3s2)cc1`, in assay [1], the pEC50 is 5.87. Turning to `CCc1cc(OCCN(Cc2ccccc2)c2nc3ccccc3s2)ccc1CCC(=O)O`, the pEC50 in assay [1] was 5.53.
